Measured values taken from ChEMBL document CHEMBL3885881, “DrugMatrix”.

Species on record: Rattus norvegicus
Experiment: DrugMatrix - Regimen: Daily Repeat
Type: toxicity, organism-based, Sprague-Dawley
Set-up: regimen Daily Repeat, gender Male, age 6-8 weeks
Settings: in vivo, po, route oral GAVAGE, vehicle .5 % CMC; for ABSOLUTE BASOPHIL / ABSOLUTE EOSINOPHIL / ABSOLUTE LYMPHOCYTE / ABSOLUTE MONOCYTE / ABSOLUTE SEGMENTED NEUTROPHIL / BASOPHIL / EOSINOPHIL / ERYTHROCYTE COUNT / HEMATOCRIT / HEMOGLOBIN / LEUKOCYTE COUNT / LYMPHOCYTE / MEAN CORPUSCULAR HEMOGLOBIN / MEAN CORPUSCULAR HEMOGLOBIN CONCENTRATION / MEAN CORPUSCULAR VOLUME / MONOCYTE / NEUTROPHIL / NUCLEATED RED BLOOD CELLS / PLATELET COUNT: tissue Blood; for ALANINE AMINOTRANSFERASE / ALBUMIN / ALKALINE PHOSPHATASE / ASPARTATE AMINOTRANSFERASE / BLOOD UREA NITROGEN / CARBON DIOXIDE / CHLORIDE / CHOLESTEROL / CREATINE PHOSPHOKINASE / CREATININE / GLUCOSE / LACTATE DEHYDROGENASE / LIPASE / PHOSPHORUS / POTASSIUM / SODIUM / TOTAL BILIRUBIN / TOTAL PROTEIN / URIC ACID: tissue Plasma
[1] = 15 mg/kg, 120 h, dose level Low, time 5 day
[2] = 1500 mg/kg, 72 h, dose level High, time 3 day
[3] = 1500 mg/kg, 120 h, dose level High, time 5 day

`COC(=O)c1ccc(O)cc1` [METHYLPARABEN] was tested, and the “ABSOLUTE BASOPHIL” value [1] was 0 CELLS/uL, the “ABSOLUTE EOSINOPHIL” value [1] was 60.67 CELLS/uL and the “ABSOLUTE LYMPHOCYTE” value [1] was 12673.33 CELLS/uL. For the same molecule, the “ABSOLUTE MONOCYTE” value [1] was 0 CELLS/uL, the “ABSOLUTE SEGMENTED NEUTROPHIL” value [1] was 1232.67 CELLS/uL and the BASOPHIL [1] was 0%. The EOSINOPHIL [1] was 0.33%, the “ERYTHROCYTE COUNT” value [1] was 5.42 x10E6/uL and the HEMATOCRIT [1] was 34.93%. The HEMOGLOBIN [1] was 13.97 G/DL, the “LEUKOCYTE COUNT” value [1] was 13.97 x10E3/uL and the LYMPHOCYTE [1] was 91%. The “MEAN CORPUSCULAR HEMOGLOBIN” value [1] was 25.8 pg, the “MEAN CORPUSCULAR HEMOGLOBIN CONCENTRATION” value [1] was 40 G/DL and the “MEAN CORPUSCULAR VOLUME” value [1] was 64.4 fL. For the same molecule, the MONOCYTE [1] was 0%, the NEUTROPHIL [1] was 8.67% and the “NUCLEATED RED BLOOD CELLS” value [1] was 0 /100WBC. For the same molecule, the “PLATELET COUNT” value [1] was 1233.67 x10E3/uL, the “ALANINE AMINOTRANSFERASE” value [1] was 58.67 u/L and the ALBUMIN [1] was 3.9 G/DL. For the same molecule, the “ALKALINE PHOSPHATASE” value [1] was 392.67 u/L, the “ASPARTATE AMINOTRANSFERASE” value [1] was 87.33 u/L and the “BLOOD UREA NITROGEN” value [1] was 17.67 mg/dL. The “CARBON DIOXIDE” value [1] was 26 mmol/L, the CHLORIDE [1] was 101.67 MEQ/L and the CHOLESTEROL [1] was 65.33 mg/dL. For the same molecule, the “CREATINE PHOSPHOKINASE” value [1] was 524 u/L, the CREATININE [1] was 0.12 mg/dL and the GLUCOSE [1] was 151 mg/dL. For the same molecule, the “LACTATE DEHYDROGENASE” value [1] was 137.67 u/L, the LIPASE [1] was 9.33 u/L and the PHOSPHORUS [1] was 14.13 mg/dL. The POTASSIUM [1] was 6.95 MEQ/L, the SODIUM [1] was 142.07 MEQ/L and the “TOTAL BILIRUBIN” value [1] was 0.23 mg/dL. The “TOTAL PROTEIN” value [1] was 5.7 G/DL, the “URIC ACID” value [1] was 1.93 mg/dL and the “ABSOLUTE BASOPHIL” value [2] was 0 CELLS/uL. For the same molecule, the “ABSOLUTE EOSINOPHIL” value [2] was 0 CELLS/uL, the “ABSOLUTE LYMPHOCYTE” value [2] was 15298 CELLS/uL and the “ABSOLUTE MONOCYTE” value [2] was 225.33 CELLS/uL. The “ABSOLUTE SEGMENTED NEUTROPHIL” value [2] was 3076.67 CELLS/uL, the BASOPHIL [2] was 0% and the EOSINOPHIL [2] was 0%. For the same molecule, the “ERYTHROCYTE COUNT” value [2] was 5.36 x10E6/uL, the HEMATOCRIT [2] was 33.07% and the HEMOGLOBIN [2] was 13.37 G/DL. For the same molecule, the “LEUKOCYTE COUNT” value [2] was 18.6 x10E3/uL, the LYMPHOCYTE [2] was 82.67% and the “MEAN CORPUSCULAR HEMOGLOBIN” value [2] was 25.03 pg. The “MEAN CORPUSCULAR HEMOGLOBIN CONCENTRATION” value [2] was 40.47 G/DL, the “MEAN CORPUSCULAR VOLUME” value [2] was 61.8 fL and the MONOCYTE [2] was 1.33%. The NEUTROPHIL [2] was 16%, the “NUCLEATED RED BLOOD CELLS” value [2] was 0 /100WBC and the “PLATELET COUNT” value [2] was 1154.33 x10E3/uL. The “ALANINE AMINOTRANSFERASE” value [2] was 60 u/L, the ALBUMIN [2] was 4.03 G/DL and the “ALKALINE PHOSPHATASE” value [2] was 433.33 u/L. The “ASPARTATE AMINOTRANSFERASE” value [2] was 87 u/L, the “BLOOD UREA NITROGEN” value [2] was 18 mg/dL and the “CARBON DIOXIDE” value [2] was 30.33 mmol/L. The CHLORIDE [2] was 95.67 MEQ/L, the CHOLESTEROL [2] was 67.67 mg/dL and the “CREATINE PHOSPHOKINASE” value [2] was 211.67 u/L. The CREATININE [2] was 0.15 mg/dL, the GLUCOSE [2] was 165.67 mg/dL and the “LACTATE DEHYDROGENASE” value [2] was 122 u/L. It also gave an LIPASE [2] of 9 u/L, a PHOSPHORUS [2] of 12.87 mg/dL and a POTASSIUM [2] of 6.96 MEQ/L. For the same molecule, the SODIUM [2] was 141.63 MEQ/L, the “TOTAL BILIRUBIN” value [2] was 0.23 mg/dL and the “TOTAL PROTEIN” value [2] was 5.77 G/DL. The “URIC ACID” value [2] was 1.4 mg/dL, the “ABSOLUTE BASOPHIL” value [3] was 0 CELLS/uL and the “ABSOLUTE EOSINOPHIL” value [3] was 0 CELLS/uL. The “ABSOLUTE LYMPHOCYTE” value [3] was 16336 CELLS/uL, the “ABSOLUTE MONOCYTE” value [3] was 67.33 CELLS/uL and the “ABSOLUTE SEGMENTED NEUTROPHIL” value [3] was 1396.67 CELLS/uL. The BASOPHIL [3] was 0%, the EOSINOPHIL [3] was 0% and the “ERYTHROCYTE COUNT” value [3] was 5.64 x10E6/uL. The HEMATOCRIT [3] was 35.9%, the HEMOGLOBIN [3] was 14.27 G/DL and the “LEUKOCYTE COUNT” value [3] was 17.8 x10E3/uL. For the same molecule, the LYMPHOCYTE [3] was 92%, the “MEAN CORPUSCULAR HEMOGLOBIN” value [3] was 25.3 pg and the “MEAN CORPUSCULAR HEMOGLOBIN CONCENTRATION” value [3] was 39.77 G/DL. The “MEAN CORPUSCULAR VOLUME” value [3] was 63.6 fL, the MONOCYTE [3] was 0.33% and the NEUTROPHIL [3] was 7.67%. For the same molecule, the “NUCLEATED RED BLOOD CELLS” value [3] was 0 /100WBC, the “PLATELET COUNT” value [3] was 1293.33 x10E3/uL and the “ALANINE AMINOTRANSFERASE” value [3] was 45.33 u/L. The ALBUMIN [3] was 4.33 G/DL, the “ALKALINE PHOSPHATASE” value [3] was 338.33 u/L and the “ASPARTATE AMINOTRANSFERASE” value [3] was 85 u/L. The “BLOOD UREA NITROGEN” value [3] was 15.67 mg/dL, the “CARBON DIOXIDE” value [3] was 30 mmol/L and the CHLORIDE [3] was 100.67 MEQ/L. The CHOLESTEROL [3] was 76 mg/dL, the “CREATINE PHOSPHOKINASE” value [3] was 311.33 u/L and the CREATININE [3] was 0.22 mg/dL. For the same molecule, the GLUCOSE [3] was 154.33 mg/dL, the “LACTATE DEHYDROGENASE” value [3] was 98 u/L and the LIPASE [3] was 9 u/L. The PHOSPHORUS [3] was 11.73 mg/dL, the POTASSIUM [3] was 6.62 MEQ/L and the SODIUM [3] was 145.9 MEQ/L. The “TOTAL BILIRUBIN” value [3] was 0.27 mg/dL, the “TOTAL PROTEIN” value [3] was 6.1 G/DL and the “URIC ACID” value [3] was 1.9 mg/dL.
